These cell lines were tested with Cc1ccc2nc(NCCN)c3ncc(C)n3c2c1 (assay: relative viability (nuclei count vs DMSO), 5 days (fraction); higher = more cells survive). Details: 0.04 µM.
Summary of the method: (§1)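 Only plates meeting two conditions passed: control CV below 25% and at least one doubling. Lung cancer cell lines, kept overnight at 37 °C in 1536-well plates, were pinned with five library-drug doses (not always all listed) √10 apart on vehicle-anchored plates and grown 5 days without medium change. A one-step fix, permeabilisation and Hoechst stain preceded 4× imaging and MetaXpress nuclear counting. Viability equals treated-well nuclei divided by vehicle-well nuclei, as the median over plates.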

Cell Line	relative viability
NCI-H2085	1.03
Calu-6	1.03
HCC-366	1.03
NCI-H1666	1.08
NCI-H596	0.952
LK-2	0.961
NCI-H2087	1.13
NCI-H358	0.988
NCI-H2170	0.961
H3255	1.02
COR-L23	1.05
COR-L 105	0.997
IA-LM	0.989
LOU-NH91	1.01
NCI-H1793	0.954
NCI-H2405	1.02

Cell Line	relative viability
HOP-62	0.97
HCC-44	0.976
A549	1.09
SK-MES-1	1.05
LU99A	1.07
BEN	1.07
HARA	0.913
HCC-78	1.08
NCI-H322M	0.983
LCLC-97TM1	1.07
NCI-H2009	1.04
A-427	1.01
NCI-H661	1
NCI-H1734	0.979
NCI-H460	0.99
NCI-H2347	1.06

Same assay, conditions: 0.1265 µM

Cell Line	relative viability
NCI-H2085	1
Calu-6	0.986
HCC-366	1.04
NCI-H1666	0.951
NCI-H596	0.934
LK-2	0.928
NCI-H2087	1.15
NCI-H358	1.01
NCI-H2170	0.976
H3255	0.9
COR-L23	1.04
COR-L 105	0.864
IA-LM	0.984
LOU-NH91	0.961
NCI-H1793	0.946
NCI-H2405	1.01

Cell Line	relative viability
HOP-62	1
HCC-44	0.945
A549	0.927
SK-MES-1	1.01
LU99A	0.904
BEN	0.931
HARA	0.956
HCC-78	0.979
NCI-H322M	0.915
LCLC-97TM1	0.934
NCI-H2009	0.982
A-427	1.01
NCI-H661	1.03
NCI-H1734	0.99
NCI-H460	0.971
NCI-H2347	1.12

Same assay, conditions: 0.4 µM

Cell Line	relative viability
NCI-H2085	0.982
Calu-6	0.974
HCC-366	1.05
NCI-H1666	0.962
NCI-H596	1.02
LK-2	0.881
NCI-H2087	0.861
NCI-H358	0.933
NCI-H2170	0.995
H3255	0.886
COR-L23	0.964
COR-L 105	0.955
IA-LM	0.761
LOU-NH91	0.949
NCI-H1793	0.78
NCI-H2405	1.03

Cell Line	relative viability
HOP-62	0.827
HCC-44	0.963
A549	1.01
SK-MES-1	0.984
LU99A	0.986
BEN	0.93
HARA	0.928
HCC-78	0.919
NCI-H322M	0.988
LCLC-97TM1	0.978
NCI-H2009	1.03
A-427	0.968
NCI-H661	0.996
NCI-H1734	0.886
NCI-H460	0.99
NCI-H2347	0.911

Same assay, conditions: 1.265 µM

Cell Line	relative viability
NCI-H2085	1.04
Calu-6	1.02
HCC-366	0.98
NCI-H1666	0.993
NCI-H596	0.937
LK-2	0.979
NCI-H2087	0.997
NCI-H358	1.07
NCI-H2170	0.887
H3255	1.06
COR-L23	0.994
COR-L 105	1.05
IA-LM	0.756
LOU-NH91	0.979
NCI-H1793	0.878
NCI-H2405	1.05

Cell Line	relative viability
HOP-62	1.04
HCC-44	0.972
A549	0.958
SK-MES-1	1.01
LU99A	0.961
BEN	1.03
HARA	0.843
HCC-78	0.943
NCI-H322M	0.987
LCLC-97TM1	1.04
NCI-H2009	1.02
A-427	1.05
NCI-H661	0.985
NCI-H1734	0.9
NCI-H460	0.999
NCI-H2347	0.986

Same assay, conditions: 4 µM

Cell Line	relative viability
NCI-H2085	1.01
Calu-6	0.854
HCC-366	0.992
NCI-H1666	0.993
NCI-H596	0.909
LK-2	1.03
NCI-H2087	0.953
NCI-H358	0.919
NCI-H2170	0.978
H3255	0.843
COR-L23	0.994
COR-L 105	0.801
IA-LM	0.743
LOU-NH91	0.901
NCI-H1793	0.882
NCI-H2405	0.915

Cell Line	relative viability
HOP-62	0.984
HCC-44	0.914
A549	0.879
SK-MES-1	0.992
LU99A	0.839
BEN	1.04
HARA	0.973
HCC-78	0.826
NCI-H322M	0.996
LCLC-97TM1	0.899
NCI-H2009	0.947
A-427	0.95
NCI-H661	0.969
NCI-H1734	0.979
NCI-H460	0.943
NCI-H2347	0.962

Each cell line was assayed with O=C(/C=C/c1ccccc1)NC(NC(=S)Nc1cccc2cccnc12)C(Cl)(Cl)Cl [Salubrinal] in the same assay as above. Details: 0.08 µM.
Summary of the method: as §1

Cell Line	relative viability
NCI-H2085	1.08
Calu-6	1.17
HCC-366	1.09
NCI-H1666	0.953
NCI-H596	1.08
LK-2	1.08
NCI-H2087	1.16
NCI-H358	1.06
NCI-H2170	1.21
H3255	1.07
COR-L23	1.11
COR-L 105	0.93
IA-LM	0.983
LOU-NH91	0.985
NCI-H1793	1.14
NCI-H2405	1.01

Cell Line	relative viability
HOP-62	1.01
HCC-44	0.952
A549	1.2
SK-MES-1	1.14
LU99A	1.07
BEN	1.07
HARA	1
HCC-78	1.03
NCI-H322M	1.01
LCLC-97TM1	1.07
NCI-H2009	1.03
A-427	1.06
NCI-H661	1.09
NCI-H1734	1.02
NCI-H460	1.16
NCI-H2347	0.94

Same assay, conditions: 0.253 µM

Cell Line	relative viability
NCI-H2085	0.976
Calu-6	0.925
HCC-366	0.915
NCI-H1666	0.99
NCI-H596	0.89
LK-2	1.01
NCI-H2087	0.931
NCI-H358	1.02
NCI-H2170	0.984
H3255	0.965
COR-L23	1.1
COR-L 105	0.895
IA-LM	0.9
LOU-NH91	0.976
NCI-H1793	1.01
NCI-H2405	1.03

Cell Line	relative viability
HOP-62	0.981
HCC-44	0.97
A549	0.855
SK-MES-1	0.997
LU99A	0.862
BEN	0.961
HARA	0.956
HCC-78	0.937
NCI-H322M	0.869
LCLC-97TM1	1.06
NCI-H2009	1.03
A-427	0.973
NCI-H661	0.928
NCI-H1734	0.882
NCI-H460	0.946
NCI-H2347	1.03

Same assay, conditions: 0.8 µM

Cell Line	relative viability
NCI-H2085	1.02
Calu-6	1.01
HCC-366	1.04
NCI-H1666	0.987
NCI-H596	1.01
LK-2	1.27
NCI-H2087	1.07
NCI-H358	1.09
NCI-H2170	1.04
H3255	1.11
COR-L23	1.06
COR-L 105	0.94
IA-LM	1.15
LOU-NH91	1.04
NCI-H1793	0.938
NCI-H2405	1.09

Cell Line	relative viability
HOP-62	1.11
HCC-44	1.07
A549	1.03
SK-MES-1	1.09
LU99A	1.03
BEN	1.07
HARA	1.02
HCC-78	1.27
NCI-H322M	0.963
LCLC-97TM1	1.21
NCI-H2009	1.02
A-427	1.12
NCI-H661	0.992
NCI-H1734	1.14
NCI-H460	1.11
NCI-H2347	1.15

Same assay, conditions: 2.53 µM

Cell Line	relative viability
NCI-H2085	0.947
Calu-6	0.981
HCC-366	1.01
NCI-H1666	0.888
NCI-H596	0.896
LK-2	1.16
NCI-H2087	0.989
NCI-H358	0.908
NCI-H2170	0.996
H3255	0.958
COR-L23	0.966
COR-L 105	0.88
IA-LM	0.903
LOU-NH91	0.983
NCI-H1793	1.04
NCI-H2405	1.03

Cell Line	relative viability
HOP-62	1.06
HCC-44	1.02
A549	0.99
SK-MES-1	0.988
LU99A	0.9
BEN	1.15
HARA	0.908
HCC-78	0.949
NCI-H322M	0.988
LCLC-97TM1	0.992
NCI-H2009	0.993
A-427	0.965
NCI-H661	0.937
NCI-H1734	1.01
NCI-H460	0.983
NCI-H2347	1.08

Same assay, conditions: 8 µM

Cell Line	relative viability
NCI-H2085	1.01
Calu-6	0.936
HCC-366	1.04
NCI-H1666	1.2
NCI-H596	0.982
LK-2	1
NCI-H2087	0.968
NCI-H358	0.795
NCI-H2170	0.935
H3255	0.949
COR-L23	0.95
COR-L 105	0.83
IA-LM	0.922
LOU-NH91	0.937
NCI-H1793	0.823
NCI-H2405	0.966

Cell Line	relative viability
HOP-62	0.98
HCC-44	0.973
A549	0.924
SK-MES-1	0.945
LU99A	0.898
BEN	0.976
HARA	1.17
HCC-78	0.891
NCI-H322M	0.811
LCLC-97TM1	1.11
NCI-H2009	0.906
A-427	1.08
NCI-H661	0.998
NCI-H1734	0.909
NCI-H460	0.918
NCI-H2347	1.07

Reference: the supplement of paper PMC10307832
